According to ChEMBL document CHEMBL1201862, “PubChem BioAssay data set” (2004):
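Values below derive from 48-hour exposures of cells grown in 96-well plates, with endpoints linearly interpolated between the two concentrations bracketing the appropriate inhibition level. GI50: concentration for 50% inhibition of growth.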 The source made the active and inactive calls. Cut-off read from the data, not from the text of the source: active = GI50 up to about 1.1 µM and inactive = higher.

Key:
Assay in all cases: NCI anticancer screen, dose series, 48 h
786-0 = tested on: 786-0
A498 = tested on: A498
A549 = tested on: A549
ACHN = tested on: ACHN
BT-549 = tested on: BT-549
CAKI-1 = tested on: CAKI-1
COLO 205 = tested on: COLO 205
DU-145 = tested on: DU-145
EKVX = tested on: EKVX
HCT-116 = tested on: HCT-116
HCT-15 = tested on: HCT-15
HL-60 = tested on: HL-60
HOP-62 = tested on: HOP-62
HOP-92 = tested on: HOP-92
HT-29 = tested on: HT-29
Hs-578T = tested on: Hs-578T
IGROV-1 = tested on: IGROV-1
K562 = tested on: K562
KM12 = tested on: KM12
LOX IMVI = tested on: LOX IMVI
M14 = tested on: M14
MCF7 = tested on: MCF7
MDA-MB-231 = tested on: MDA-MB-231
MDA-MB-435 = tested on: MDA-MB-435
MDA-N = tested on: MDA-N
NCI-H226 = tested on: NCI-H226
NCI-H23 = tested on: NCI-H23
NCI-H460 = tested on: NCI-H460
NCI-H522 = tested on: NCI-H522
NCI/ADR-RES = tested on: NCI/ADR-RES
OVCAR-3 = tested on: OVCAR-3
OVCAR-4 = tested on: OVCAR-4
OVCAR-5 = tested on: OVCAR-5
OVCAR-8 = tested on: OVCAR-8
PC-3 = tested on: PC-3
RPMI-8226 = tested on: RPMI-8226
SF-268 = tested on: SF-268
SF-295 = tested on: SF-295
SK-MEL-28 = tested on: SK-MEL-28
SK-MEL-2 = tested on: SK-MEL-2
SK-MEL-5 = tested on: SK-MEL-5
SN12C = tested on: SN12C
SNB-19 = tested on: SNB-19
SW-620 = tested on: SW-620
T47D = tested on: T47D
TK-10 = tested on: TK-10
U-251 = tested on: U-251
UACC-257 = tested on: UACC-257
UACC-62 = tested on: UACC-62
UO-31 = tested on: UO-31
CCRF-CEM = tested on: CCRF-CEM
HCC 2998 = tested on: HCC 2998
MOLT-4 = tested on: MOLT-4
Malme-3M = tested on: Malme-3M
RXF 393 = tested on: RXF 393
SF-539 = tested on: SF-539
SK-OV-3 = tested on: SK-OV-3
SNB-75 = tested on: SNB-75

Measured: GI50

COc1cc(NS(C)(=O)=O)ccc1Nc1cc(C)nc2ccc3[nH]ccc3c12
> 100 µM: HCT-15
inactive: 786-0 > 100 µM | A498 > 100 µM | A549 > 100 µM | ACHN > 100 µM | BT-549 > 100 µM | CAKI-1 > 100 µM | COLO 205 > 100 µM | DU-145 > 100 µM | EKVX > 100 µM | HCT-116 > 100 µM | HL-60 > 100 µM | HOP-62 > 100 µM | HOP-92 > 100 µM | HT-29 > 100 µM | Hs-578T > 100 µM | IGROV-1 > 100 µM | K562 > 100 µM | KM12 > 100 µM | LOX IMVI > 100 µM | M14 > 100 µM | MCF7 > 100 µM | MDA-MB-231 > 100 µM | MDA-MB-435 > 100 µM | MDA-N > 100 µM | NCI-H226 > 100 µM | NCI-H23 > 100 µM | NCI-H460 > 100 µM | NCI-H522 8.69 µM | NCI/ADR-RES > 100 µM | OVCAR-3 > 100 µM | OVCAR-4 > 100 µM | OVCAR-5 > 100 µM | OVCAR-8 > 100 µM | PC-3 > 100 µM | RPMI-8226 > 100 µM | SF-268 > 100 µM | SF-295 > 100 µM | SK-MEL-28 > 100 µM | SK-MEL-2 > 100 µM | SK-MEL-5 > 100 µM | SN12C > 100 µM | SNB-19 > 100 µM | SW-620 > 100 µM | T47D > 100 µM | TK-10 > 100 µM | U-251 > 100 µM | UACC-257 > 100 µM | UACC-62 > 100 µM | UO-31 > 100 µM

CC(C)C(NC(=O)Oc1ccccc1)C(=O)NC1c2c(Br)sc(Br)c2C(=O)C1O (centres undefined)
inactive: 786-0 8.79 µM | A498 > 25 µM | A549 > 25 µM | ACHN 5.56 µM | BT-549 3.67 µM | CAKI-1 6.81 µM | CCRF-CEM 7.62 µM | COLO 205 7.29 µM | DU-145 9.4 µM | EKVX 6.4 µM | HCC 2998 4.2 µM | HCT-116 3.97 µM | HL-60 9.12 µM | HT-29 4.2 µM | Hs-578T 8.95 µM | IGROV-1 4.47 µM | K562 7.8 µM | KM12 > 25 µM | LOX IMVI 4.98 µM | M14 4.58 µM | MCF7 > 25 µM | MDA-MB-231 5.11 µM | MDA-MB-435 6.68 µM | MDA-N 11.6 µM | MOLT-4 11.9 µM | Malme-3M 6.38 µM | NCI-H226 > 25 µM | NCI-H23 4.8 µM | NCI-H460 5.02 µM | NCI/ADR-RES 5.87 µM | OVCAR-3 4.14 µM | OVCAR-4 2.94 µM | OVCAR-5 4.91 µM | OVCAR-8 4.6 µM | PC-3 8.53 µM | RXF 393 3.75 µM | SF-268 6.24 µM | SF-295 > 25 µM | SF-539 14.2 µM | SK-MEL-28 4.93 µM | SK-MEL-2 7.33 µM | SK-MEL-5 4.53 µM | SK-OV-3 > 25 µM | SN12C 5.62 µM | SNB-19 4.93 µM | SNB-75 > 25 µM | SW-620 6.1 µM | T47D 6.34 µM | TK-10 8.49 µM | U-251 5.31 µM | UACC-257 4.72 µM | UACC-62 4.02 µM | UO-31 9.64 µM
4.25 µM: HCT-15

CC1(C)[C@H]2Cc3cc4nc5ccccn5c4cc3[C@@H]1C2
inactive: 786-0 17.2 µM | A549 16.4 µM | ACHN 18.7 µM | BT-549 24.9 µM | CAKI-1 14.1 µM | CCRF-CEM 31.3 µM | COLO 205 18.4 µM | DU-145 20.8 µM | EKVX 15.9 µM | HCC 2998 18.3 µM | HCT-116 17.5 µM | HL-60 22.4 µM | HOP-62 18.7 µM | HOP-92 14.5 µM | HT-29 14.1 µM | Hs-578T 15.6 µM | IGROV-1 19 µM | K562 19.8 µM | KM12 18.6 µM | LOX IMVI 19.6 µM | M14 19.8 µM | MCF7 3.37 µM | MDA-MB-231 13 µM | MDA-MB-435 15.3 µM | MDA-N 17.3 µM | MOLT-4 27.1 µM | Malme-3M 12.4 µM | NCI-H226 16.2 µM | NCI-H23 17 µM | NCI-H460 18.4 µM | NCI-H522 4.58 µM | NCI/ADR-RES 18.2 µM | OVCAR-3 17.5 µM | OVCAR-4 12 µM | OVCAR-5 13.9 µM | OVCAR-8 14.6 µM | PC-3 17.9 µM | RPMI-8226 14.5 µM | SF-268 17.6 µM | SF-295 15.2 µM | SF-539 16.4 µM | SK-MEL-28 16 µM | SK-MEL-2 15.5 µM | SK-MEL-5 17.6 µM | SK-OV-3 17.3 µM | SN12C 19.2 µM | SNB-19 16 µM | SNB-75 13.6 µM | SW-620 20.8 µM | T47D 20.7 µM | TK-10 16.3 µM | U-251 15.7 µM | UACC-257 17.6 µM | UACC-62 15.6 µM | UO-31 14 µM
19.2 µM: HCT-15

CC1(O)C2(c3ccccc3)CCC[N+]1(C)CC2 (centres undefined)
> 100 µM: HCT-15
inactive: A498 > 100 µM | BT-549 > 100 µM | CAKI-1 > 100 µM | CCRF-CEM > 100 µM | COLO 205 > 100 µM | DU-145 > 100 µM | HCC 2998 > 100 µM | HCT-116 > 100 µM | HL-60 > 100 µM | HOP-62 > 100 µM | HOP-92 > 100 µM | HT-29 > 100 µM | Hs-578T > 100 µM | IGROV-1 > 100 µM | K562 > 100 µM | KM12 > 100 µM | LOX IMVI > 100 µM | M14 > 100 µM | MCF7 > 100 µM | MDA-MB-231 > 100 µM | MDA-MB-435 > 100 µM | MDA-N > 100 µM | MOLT-4 > 100 µM | Malme-3M > 100 µM | NCI-H226 > 100 µM | NCI-H23 > 100 µM | NCI-H460 > 100 µM | NCI/ADR-RES > 100 µM | OVCAR-3 > 100 µM | OVCAR-4 > 100 µM | OVCAR-5 > 100 µM | OVCAR-8 > 100 µM | PC-3 > 100 µM | RPMI-8226 > 100 µM | RXF 393 > 100 µM | SF-295 > 100 µM | SK-MEL-28 > 100 µM | SK-MEL-2 > 100 µM | SK-MEL-5 > 100 µM | SK-OV-3 > 100 µM | SN12C > 100 µM | SNB-19 > 100 µM | SNB-75 > 100 µM | SW-620 > 100 µM | T47D > 100 µM | TK-10 > 100 µM | U-251 > 100 µM | UACC-257 > 100 µM | UACC-62 > 100 µM | UO-31 > 100 µM

O=c1cccc2n1CC1CNC[C@H]2C1 [CYTISINICLINE]
> 100 µM: HCT-15
inactive: 786-0 > 100 µM | A549 > 100 µM | ACHN > 100 µM | BT-549 > 100 µM | CAKI-1 > 100 µM | CCRF-CEM > 100 µM | COLO 205 > 100 µM | DU-145 > 100 µM | EKVX > 100 µM | HCC 2998 > 100 µM | HCT-116 > 100 µM | HOP-62 > 100 µM | HOP-92 > 100 µM | HT-29 > 100 µM | Hs-578T > 100 µM | IGROV-1 > 100 µM | K562 > 100 µM | KM12 > 100 µM | LOX IMVI > 100 µM | M14 > 100 µM | MCF7 > 100 µM | MDA-MB-231 > 100 µM | MDA-MB-435 > 100 µM | MDA-N > 100 µM | MOLT-4 > 100 µM | Malme-3M > 100 µM | NCI-H23 > 100 µM | NCI-H460 > 100 µM | NCI-H522 > 100 µM | NCI/ADR-RES > 100 µM | OVCAR-3 > 100 µM | OVCAR-4 > 100 µM | OVCAR-5 > 100 µM | OVCAR-8 > 100 µM | PC-3 > 100 µM | RXF 393 > 100 µM | SF-268 > 100 µM | SF-295 > 100 µM | SK-MEL-28 > 100 µM | SK-MEL-2 > 100 µM | SK-MEL-5 > 100 µM | SK-OV-3 > 100 µM | SN12C > 100 µM | SNB-19 > 100 µM | SNB-75 > 100 µM | SW-620 > 100 µM | T47D > 100 µM | TK-10 > 100 µM | U-251 > 100 µM | UACC-257 > 100 µM | UACC-62 > 100 µM | UO-31 > 100 µM
